From PubChem BioAssay AID1919000 (Molecular Pharmacology Branch, DTP, NCI, 2023)

System: 653999-131-R-J2-PDC complex spheroids, growth % test/control
Assay: Anticancer human tumor 653999-131-R-J2-PDC patient-derived lung adenocarcinoma cell line growth inhibition [AhR]
Details: for viability, T/C: stronger effect = lower value
Summary of the method: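 Spheroids combined tumor cells with HUVEC endothelial cells and human MSCs as stroma. AhR antagonists were paired with standard or investigational drugs, each dosed in half-log steps down from near clinical Cmax, or from 10 microM where Cmax was unknown.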

[1] = curve of first compound, second compound 0.1 µM
[2] = curve of first compound, second compound 0.316 µM
[3] = curve of first compound, second compound 1 µM
[4] = curve of first compound, second compound 3.16 µM
[5] = curve of first compound, second compound 10 µM
[6] = second compound 0.1 µM, first compound 0.00949 µM
[7] = second compound 0.1 µM, first compound 0.03 µM
[8] = second compound 0.1 µM, first compound 0.0949 µM
[9] = second compound 0.1 µM, first compound 0.3 µM
[10] = second compound 0.1 µM, first compound 0.949 µM
[11] = second compound 0.1 µM, first compound 3 µM
[12] = second compound 0.316 µM, first compound 0.00949 µM
[13] = second compound 0.316 µM, first compound 0.03 µM
[14] = second compound 0.316 µM, first compound 0.0949 µM
[15] = second compound 0.316 µM, first compound 0.3 µM
[16] = second compound 0.316 µM, first compound 0.949 µM
[17] = second compound 0.316 µM, first compound 3 µM
[18] = second compound 1 µM, first compound 0.00949 µM
[19] = second compound 1 µM, first compound 0.03 µM
[20] = second compound 1 µM, first compound 0.0949 µM
[21] = second compound 1 µM, first compound 0.3 µM
[22] = second compound 1 µM, first compound 0.949 µM
[23] = second compound 1 µM, first compound 3 µM
[24] = second compound 3.16 µM, first compound 0.00949 µM
[25] = second compound 3.16 µM, first compound 0.03 µM
[26] = second compound 3.16 µM, first compound 0.0949 µM
[27] = second compound 3.16 µM, first compound 0.3 µM
[28] = second compound 3.16 µM, first compound 0.949 µM
[29] = second compound 3.16 µM, first compound 3 µM
[30] = second compound 10 µM, first compound 0.00949 µM
[31] = second compound 10 µM, first compound 0.03 µM
[32] = second compound 10 µM, first compound 0.0949 µM
[33] = second compound 10 µM, first compound 0.3 µM
[34] = second compound 10 µM, first compound 0.949 µM
[35] = second compound 10 µM, first compound 3 µM
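Further: spheroids exposed to agents for seven days.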
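Wherever viability, T/C is given: 100% = DMSO vehicle control viability.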

O=C(c1cc(Cc2n[nH]c(=O)c3ccccc23)ccc1F)N1CCN(C(=O)C2CC2)CC1 + Cc1ccccc1N=Nc1ccc(NC(=O)c2ccnn2C)c(C)c1
IC50 [1]: > 10 µM | IC50 [2]: > 10 µM | IC50 [3]: > 10 µM | IC50 [4]: > 10 µM | IC50 [5]: > 10 µM | viability, T/C (second compound 0.1 µM, first compound 0.0316 µM): 106% | viability, T/C (second compound 0.1 µM, first compound 0.1 µM): 101% | viability, T/C (second compound 0.1 µM, first compound 0.316 µM): 91% | viability, T/C (second compound 0.1 µM, first compound 1 µM): 92.7% | viability, T/C (second compound 0.1 µM, first compound 3.16 µM): 88.4% | viability, T/C (second compound 0.1 µM, first compound 10 µM): 77.6% | viability, T/C (second compound 0.316 µM, first compound 0.0316 µM): 96.1% | viability, T/C (second compound 0.316 µM, first compound 0.1 µM): 101% | viability, T/C (second compound 0.316 µM, first compound 0.316 µM): 95.5% | viability, T/C (second compound 0.316 µM, first compound 1 µM): 89.3% | viability, T/C (second compound 0.316 µM, first compound 3.16 µM): 89.6% | viability, T/C (second compound 0.316 µM, first compound 10 µM): 84.3% | viability, T/C (second compound 1 µM, first compound 0.0316 µM): 94% | viability, T/C (second compound 1 µM, first compound 0.1 µM): 104% | viability, T/C (second compound 1 µM, first compound 0.316 µM): 94.8% | viability, T/C (second compound 1 µM, first compound 1 µM): 84.2% | viability, T/C (second compound 1 µM, first compound 3.16 µM): 91.8% | viability, T/C (second compound 1 µM, first compound 10 µM): 82% | viability, T/C (second compound 3.16 µM, first compound 0.0316 µM): 95.1% | viability, T/C (second compound 3.16 µM, first compound 0.1 µM): 94.9% | viability, T/C (second compound 3.16 µM, first compound 0.316 µM): 91.5% | viability, T/C (second compound 3.16 µM, first compound 1 µM): 87.1% | viability, T/C (second compound 3.16 µM, first compound 3.16 µM): 85% | viability, T/C (second compound 3.16 µM, first compound 10 µM): 76.2% | viability, T/C (second compound 10 µM, first compound 0.0316 µM): 89.8% | viability, T/C (second compound 10 µM, first compound 0.1 µM): 88.3% | viability, T/C (second compound 10 µM, first compound 0.316 µM): 87% | viability, T/C (second compound 10 µM, first compound 1 µM): 82.3% | viability, T/C (second compound 10 µM, first compound 3.16 µM): 84.4% | viability, T/C (second compound 10 µM, first compound 10 µM): 72.8%

O=C(C=Cn1cnc(-c2cc(C(F)(F)F)cc(C(F)(F)F)c2)n1)NNc1cnccn1 + CC(CO)NC(=O)c1cc(-c2ccc(Cl)cc2)nn(-c2cnn(C)c2)c1=O
IC50 [1]: 0.766 µM | IC50 [2]: 0.771 µM | IC50 [3]: 0.814 µM | IC50 [4]: 1.23 µM | IC50 [5]: > 3 µM | viability, T/C [6]: 103% | viability, T/C [7]: 110% | viability, T/C [8]: 76.1% | viability, T/C [9]: 59.7% | viability, T/C [10]: 48.9% | viability, T/C [11]: 45.1% | viability, T/C [12]: 109% | viability, T/C [13]: 98% | viability, T/C [14]: 71.3% | viability, T/C [15]: 59.7% | viability, T/C [16]: 51.1% | viability, T/C [17]: 40% | viability, T/C [18]: 95.8% | viability, T/C [19]: 103% | viability, T/C [20]: 86.1% | viability, T/C [21]: 61.1% | viability, T/C [22]: 51.7% | viability, T/C [23]: 42.8% | viability, T/C [24]: 114% | viability, T/C [25]: 105% | viability, T/C [26]: 96.1% | viability, T/C [27]: 64.2% | viability, T/C [28]: 55.5% | viability, T/C [29]: 43.6% | viability, T/C [30]: 111% | viability, T/C [31]: 101% | viability, T/C [32]: 86.5% | viability, T/C [33]: 65.6% | viability, T/C [34]: 54% | viability, T/C [35]: 54.4%

CCN(c1cc(-c2ccc(CN3CCOCC3)cc2)cc(C(=O)NCc2c(C)cc(C)[nH]c2=O)c1C)C1CCOCC1 + Cc1cncc(-c2nc(NCCc3c[nH]c4ccccc34)c3ncn(C(C)C)c3n2)c1
IC50 [1]: > 3 µM | IC50 [2]: > 3 µM | IC50 [3]: > 3 µM | IC50 [4]: > 3 µM | IC50 [5]: 0.165 µM | viability, T/C [6]: 96.7% | viability, T/C [7]: 105% | viability, T/C [8]: 104% | viability, T/C [9]: 94.6% | viability, T/C [10]: 97.9% | viability, T/C [11]: 102% | viability, T/C [12]: 121% | viability, T/C [13]: 122% | viability, T/C [14]: 106% | viability, T/C [15]: 99.8% | viability, T/C [16]: 104% | viability, T/C [17]: 103% | viability, T/C [18]: 99.7% | viability, T/C [19]: 116% | viability, T/C [20]: 108% | viability, T/C [21]: 114% | viability, T/C [22]: 104% | viability, T/C [23]: 100% | viability, T/C [24]: 105% | viability, T/C [25]: 116% | viability, T/C [26]: 104% | viability, T/C [27]: 96.2% | viability, T/C [28]: 98.8% | viability, T/C [29]: 113% | viability, T/C [30]: 62% | viability, T/C [31]: 53.3% | viability, T/C [32]: 51.6% | viability, T/C [33]: 50.6% | viability, T/C [34]: 37.8% | viability, T/C [35]: 28.6%

Cc1ccccc1N=Nc1ccc(NC(=O)c2ccnn2C)c(C)c1
viability, T/C (compound 0.1 µM): 96.6% [middle of 19 runs] | viability, T/C (compound 1 µM): 95.3% [middle of 20 runs] | IC50 (compound alone, run of 06/14/2022): > 10 µM
